Data published in ChEMBL document CHEMBL2396560, “Discovery of (R)-4-cyclopropyl-7,8-difluoro-5-(4-(trifluoromethyl)phenylsulfonyl)-4,5-dihydro-1H-pyrazolo[4,3-c]quinoline (ELND006) and (R)-4-cyclopropyl-8-fluoro-5-(6-(trifluoromethyl)pyridin-3-ylsulfonyl)-4,5-dihydro-2H-pyrazolo[4,3-c]quinoline (ELND007): metabolically stable γ-secretase …” (J Med Chem, 2013).
Converted amounts (≈) assume the structure as drawn.

What was measured:
[1] = Plasma concentration in FVB mouse at 1 mg/kg, po at 3 hrs; format: ADME, organism-based; design: dose 1 mg/kg, route oral
[2] = Drug uptake in FVB mouse brain at 1 mg/kg, po at 3 hrs; format: ADME, organism-based; design: dose 1 mg/kg, route oral; settings: read-out: Drug uptake
[3] = system: Plasma; assay: AUC (0 to 3 hrs) in FVB mouse plasma at 10 mg/kg, po; format: ADME, organism-based; design: time < 3 hr, dose 10 mg/kg, route oral; settings: in vivo
[4] = system: Brain; assay: AUC (0 to 3 hrs) in FVB mouse brain at 10 mg/kg, po; format: ADME, organism-based; design: time < 3 hr, dose 10 mg/kg, route oral; settings: in vivo
[5] = system: Liver microsomes; assay: Oxidative metabolism in human liver microsomes assessed as compound remaining; format: ADME, Microsome
[6] = system: Mus musculus; assay: Toxicity in FVB mouse assessed as effect on Hes-1 mRNA level in thymus at 3 mg/kg, po administered as single dose measured at 3 hrs; format: organism-based; design: dose 3 mg/kg, route oral; settings: in vivo
[7] = system: Brain; assay: AUC (0 to 3 hrs) in FVB mouse brain at 1 mg/kg, po; format: ADME, organism-based; design: time < 3 hr, dose 1 mg/kg, route oral; settings: in vivo
[8] = system: Homo sapiens; assay: Hepatic toxicity in po dosed healthy human administered as gelatin capsule; format: organism-based; settings: in vivo
[9] = Drug uptake in FVB mouse brain at 30 mg/kg, po at 3 hrs; format: ADME, organism-based; design: dose 30 mg/kg, route oral; settings: read-out: Drug uptake
[10] = system: Plasma; assay: AUC (0 to 3 hrs) in FVB mouse plasma at 1 mg/kg, po; format: ADME, organism-based; design: time < 3 hr, dose 1 mg/kg, route oral; settings: in vivo
[11] = Passive permebility in wild-type MDCK cells; format: ADME, cell-based, Canis lupus familiaris; settings: dog, read-out: permeability
[12] = Aqueous solubility of the compound; format: physicochemical; settings: buffer
[13] = Systemic clearance in rat; format: ADME, organism-based; settings: in vivo
[14] = system: Brain; assay: AUC (0 to 3 hrs) in FVB mouse brain at 30 mg/kg, po; format: ADME, organism-based; design: time < 3 hr, dose 30 mg/kg, route oral; settings: in vivo
[15] = system: Liver; assay: Glucuronidation metabolism in mouse liver microsomes assessed as compound remaining; format: ADME, Microsome
[16] = Plasma concentration in FVB mouse at 3 mg/kg, po at 3 hrs; format: ADME, organism-based; design: dose 3 mg/kg, route oral
[17] = Plasma concentration in FVB mouse at 30 mg/kg, po at 3 hrs; format: ADME, organism-based; design: dose 30 mg/kg, route oral
[18] = system: Mus musculus; assay: Toxicity in FVB mouse assessed as effect on Hes-1 mRNA level in thymus at 30 mg/kg, po administered as single dose measured at 3 hrs; format: organism-based; design: dose 30 mg/kg, route oral; settings: in vivo
[19] = system: CHO; assay: Inhibition of gamma-secretase in CHO cells assessed expressing APPSw assessed as inhibition of amyloid beta(1 to x) secretion after overnight incubation by ELISA; format: cell-based; settings: Cricetulus griseus
[20] = system: Brain; assay: AUC (0 to 3 hrs) in FVB mouse brain at 3 mg/kg, po; format: ADME, organism-based; design: time < 3 hr, dose 3 mg/kg, route oral; settings: in vivo
[21] = system: Mus musculus; assay: Reduction in amyloid beta (x to 40) in FVB mouse cortex at 3 mg/kg, po administered as single dose measured at 3 hrs; format: functional; design: scale not given: the % may be the effect or the level left
[22] = organism: Rattus norvegicus; assay: Systemic clearance in rat relative to hepatic blood flow; format: ADME, organism-based, Liver; settings: in vivo
[23] = system: Mus musculus; assay: Reduction in amyloid beta (x to 40) in FVB mouse cortex at 10 mg/kg, po administered as single dose measured at 3 hrs; format: functional; design: scale not given: the % may be the effect or the level left
[24] = target: Gamma-secretase; assay: Inhibition of partially purified human gamma-secretase-mediated cleavage of MBP-APPc125Sw fusion protein measured after overnight incubation by ELISA; format: protein-complex assay
[25] = system: Plasma; assay: AUC (0 to 3 hrs) in FVB mouse plasma at 30 mg/kg, po; format: ADME, organism-based; design: time < 3 hr, dose 30 mg/kg, route oral; settings: in vivo
[26] = system: Liver; assay: Oxidative metabolism in dog liver microsomes assessed as compound remaining; format: ADME, Canis lupus familiaris, Microsome
[27] = target: Gamma-secretase (Homo sapiens) (UniProt Q96BI3+Q9NZ42+Q8WW43+P49768+Q92542+P49810); assay: Selctivity ratio of IC50 for partially purified human gamma-secretase-mediated cleavage of notch fusion protein to IC50 for partially purified human gamma-secretase-mediated cleavage of MBP-APPc125Sw fusion protein; format: protein-complex assay
[28] = Octanol-water partition co-efficient, log P of the compound by shake-flask method; format: physicochemical
[29] = Drug uptake in FVB mouse brain at 10 mg/kg, po at 3 hrs; format: ADME, organism-based; design: dose 10 mg/kg, route oral; settings: read-out: Drug uptake
[30] = system: Plasma; assay: AUC (0 to 3 hrs) in FVB mouse plasma at 3 mg/kg, po; format: ADME, organism-based; design: time < 3 hr, dose 3 mg/kg, route oral; settings: in vivo
[31] = system: Mus musculus; assay: Toxicity in FVB mouse assessed as effect on Hes-1 mRNA level in thymus at 10 mg/kg, po administered as single dose measured at 3 hrs; format: organism-based; design: dose 10 mg/kg, route oral; settings: in vivo
[32] = system: Liver; assay: Glucuronidation metabolism in dog liver microsomes assessed as compound remaining; format: ADME, Canis lupus familiaris, Microsome
[33] = system: Liver microsomes; assay: Oxidative metabolism in rat liver microsomes assessed as compound remaining; format: ADME, Microsome
[34] = system: Mus musculus; assay: Toxicity in FVB mouse assessed as effect on Hes-1 mRNA level in thymus at 1 mg/kg, po administered as single dose measured at 3 hrs; format: organism-based; design: dose 1 mg/kg, route oral; settings: in vivo
[35] = Oral bioavailability in rat; format: ADME, organism-based; settings: in vivo
[36] = target: Gamma-secretase; assay: Inhibition of partially purified human gamma-secretase-mediated cleavage of notch fusion protein measured after overnight incubation by ELISA; format: protein-complex assay
[37] = Drug uptake in FVB mouse brain at 3 mg/kg, po at 3 hrs; format: ADME, organism-based; design: dose 3 mg/kg, route oral; settings: read-out: Drug uptake
[38] = system: Liver; assay: Oxidative metabolism in mouse liver microsomes assessed as compound remaining; format: ADME, Microsome
[39] = system: Mus musculus; assay: Reduction in amyloid beta (x to 40) in FVB mouse cortex at 1 mg/kg, po administered as single dose measured at 3 hrs; format: functional; design: scale not given: the % may be the effect or the level left
[40] = system: Mus musculus; assay: Reduction in amyloid beta (x to 40) in FVB mouse cortex at 30 mg/kg, po administered as single dose measured at 3 hrs; format: functional; design: scale not given: the % may be the effect or the level left
[41] = Plasma concentration in FVB mouse at 10 mg/kg, po at 3 hrs; format: ADME, organism-based; design: dose 10 mg/kg, route oral
[42] = system: Liver microsomes; assay: Glucuronidation metabolism in rat liver microsomes assessed as compound remaining; format: ADME, Microsome
[43] = system: CHO; assay: Inhibition of gamma-secretase in CHO cells assessed expressing NotchdeltaE assessed as inhibition of notch cleavage after overnight incubation by luciferase reporter gene assay; format: cell-based; settings: Cricetulus griseus
[44] = system: Liver microsomes; assay: Glucuronidation metabolism in human liver microsomes assessed as compound remaining; format: ADME, Microsome
[45] = system: CHO; assay: Selctivity ratio of ED50 for gamma-secretase in CHO cells assessed expressing NotchdeltaE assessed as inhibition of notch cleavage to ED50 for gamma-secretase in CHO cells assessed expressing APPSw assessed as inhibition of amyloid beta(1 to x) secretion; format: cell-based; settings: Cricetulus griseus

concentration at 3 h [1]: 14 nM
concentration at 3 h [2]: 45 nM
AUC [3]: 4.7 µM
AUC [4]: 4.1 µM
Stability [5]: 85%
AUC [7]: 0.24 µM
concentration at 3 h [9]: 2600 nM
AUC [10]: 0.14 µM
Papp [11]: 8.8 ×10⁻⁶ cm/s
solubility [12]: 100 µg/mL (≈ 228 µM)
clearance [13]: 23 mL/min/kg
AUC [14]: 11 µM
Stability [15]: 90%
concentration at 3 h [16]: 79 nM
concentration at 3 h [17]: 3500 nM
AUC [20]: 0.92 µM
CLH [22]: 42%
IC50 [24]: 0.1 nM
AUC [25]: 12 µM
Stability [26]: 80%
Ratio IC50 [27]: 17
logP [28]: 3.65
concentration at 3 h [29]: 1000 nM
AUC [30]: 0.57 µM
Stability [32]: 87%
Stability [33]: 81%
bioavailability [35]: 92%
IC50 [36]: 1.7 nM
concentration at 3 h [37]: 220 nM
Stability [38]: 80%
concentration at 3 h [41]: 1200 nM
Stability [42]: 91%
Stability [44]: 91%
Compound: O=S(=O)(c1ccc(C(F)(F)F)nc1)N1c2ccc(F)cc2-c2n[nH]cc2[C@H]1C1CC1
Activity [6]: -21%
Activity [8]: Toxic
Activity [18]: -46%
ED50 [19]: 0.28 nM
Activity [21]: 56%
Activity [23]: 61%
Activity [31]: -44%
Activity [34]: 11%
Activity [39]: 34%
Activity [40]: 62%
ED50 [43]: 20 nM
Ratio ED50 [45]: 71
